# Data reported in the NIST ThermoML archive (doi:10.1021/je8003832).
# Numbers after ± are expanded uncertainties.
# Columns and labels:
# [1] = 101 kPa, Liquid
# [2] = xn = mol fraction of the nth substance listed; conditions: 101 kPa, Liquid, x1 = 1
smiles,measurement,setting,value
CCCCn1cc[n+](C)c1.O=S(=O)([O-])C(F)(F)F [1-butyl-3-methylimidazolium trifluoromethanesulfonate],mass density,[1]; 303.15 K,1298.4 ± 4 kg/m3
same,viscosity,[1]; 303.15 K,63.19 ± 4.1 mPa·s
same,mass density,[1]; 308.15 K,1294.9 ± 4.1 kg/m3
same,viscosity,[1]; 308.15 K,51.73 ± 3.6 mPa·s
same,mass density,[1]; 313.15 K,1291.4 ± 4.2 kg/m3
same,viscosity,[1]; 313.15 K,42.46 ± 2.8 mPa·s
same,mass density,[1]; 318.15 K,1287.8 ± 4.3 kg/m3
same,viscosity,[1]; 318.15 K,35.17 ± 2.3 mPa·s
same,mass density,[1]; 323.15 K,1284.4 ± 4.5 kg/m3
same,viscosity,[1]; 323.15 K,29.55 ± 2 mPa·s
same,mass density,[1]; 333.15 K,1277.4 ± 4.7 kg/m3
same,viscosity,[1]; 333.15 K,21.61 ± 1.5 mPa·s
same,mass density,[1]; 343.15 K,1270.5 ± 4.9 kg/m3
same,viscosity,[1]; 343.15 K,16.38 ± 1.1 mPa·s
O [water] + CCCCn1cc[n+](C)c1.O=S(=O)([O-])C(F)(F)F,viscosity,[2]; 303.15 K,0.7977 ± 0.081 mPa·s
same,viscosity,[2]; 308.15 K,0.719 ± 0.074 mPa·s
same,viscosity,[2]; 313.15 K,0.6532 ± 0.069 mPa·s
same,viscosity,[2]; 318.15 K,0.6001 ± 0.064 mPa·s
same,viscosity,[2]; 323.15 K,0.547 ± 0.06 mPa·s
same,mass density,[2]; 333.15 K,983.2 ± 3.3 kg/m3
same,viscosity,[2]; 333.15 K,0.4665 ± 0.053 mPa·s
same,mass density,[2]; 343.15 K,977.8 ± 3.5 kg/m3
same,viscosity,[2]; 343.15 K,0.404 ± 0.048 mPa·s
